From PubChem BioAssay AID330 (DTP/NCI, 2004)
Several values for one entry are separate records, joined by “and”; a condition that tells them apart may be missing. Equal values may be shown once. Inconclusive results and toxic doses are left out.

Tested on: P388 leukemia ip, CD2F1 mice, survival T/C
Assay: NCI In Vivo Anticancer Drug Screen. Data for tumor model P388 Leukemia (intraperitoneal) in CD2F1 (CDF1) mice
Details: endpoint: median survival time, higher = longer survival
Method in brief: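 Mice carrying the transplanted tumor received test compound or vehicle. Survival was recorded in each group, and the value is the treated-group measurement divided by that of the vehicle-treated control group.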

[1] = dose: 6.25 mg/kg/injection, schedule: Q01DX009 (ip), vehicle: saline
[2] = dose: 50.0 mg/kg/injection, schedule: Q01DX009 (ip), vehicle: saline with Tween-80
[3] = dose: 100.0 mg/kg/injection, schedule: Q01DX009 (ip), vehicle: saline with Tween-80
[4] = dose: 200.0 mg/kg/injection, schedule: Q01DX009 (ip), vehicle: saline with Tween-80
[5] = dose: 60.0 mg/kg/injection, schedule: Q01DX005 (ip), vehicle: saline with Tween-80
[6] = dose: 120.0 mg/kg/injection, schedule: Q01DX005 (ip), vehicle: saline with Tween-80
[7] = dose: 240.0 mg/kg/injection, schedule: Q01DX005 (ip), vehicle: saline with Tween-80
[8] = dose: 50.0 mg/kg/injection, schedule: Q01DX005 (ip), vehicle: saline with Tween-80
[9] = dose: 50.0 mg/kg/injection, schedule: Q01DX009 (ip), vehicle: Klucel (hydroxypropylcellulose) (HPC)
[10] = dose: 100.0 mg/kg/injection, schedule: Q01DX009 (ip), vehicle: Klucel (hydroxypropylcellulose) (HPC)
[11] = dose: 200.0 mg/kg/injection, schedule: Q01DX009 (ip), vehicle: Klucel (hydroxypropylcellulose) (HPC)
[12] = dose: 100.0 mg/kg/injection, schedule: Q01DX005 (ip), vehicle: saline with Tween-80
[13] = dose: 200.0 mg/kg/injection, schedule: Q01DX005 (ip), vehicle: saline with Tween-80
[14] = dose: 50.0 mg/kg/injection, schedule: Q01DX005 (ip), vehicle: Klucel (hydroxypropylcellulose) (HPC)

COc1cc(N(CCCl)CCCl)ccc1NC(=O)c1ccccc1
T/C [1]: 150 % of control | T/C (dose: 6.25 mg/kg/injection, schedule: Q04DX003 (ip), vehicle: saline with Tween-80): 109 % of control | T/C (dose: 12.5 mg/kg/injection, schedule: Q01DX009 (ip), vehicle: saline): 168 % of control | T/C (dose: 12.5 mg/kg/injection, schedule: Q04DX003 (ip), vehicle: saline with Tween-80): 118 % of control | T/C (dose: 16.5 mg/kg/injection, schedule: Q04DX003 (ip), vehicle: saline sonified): 113 % of control | T/C (dose: 25.0 mg/kg/injection, schedule: Q01DX009 (ip), vehicle: saline): 100 % of control | T/C (dose: 37.5 mg/kg/injection, schedule: Q04DX003 (ip), vehicle: saline sonified): 181 % of control

CCOC1OCN(Cc2ccccc2)CC1(C)C (stereo not drawn)
T/C [2]: 114 % of control | T/C [3]: 115 % of control | T/C [4]: 117 % of control

CCO/C(C)=N/n1c(C)nc2[nH]ncc2c1=O
T/C [5]: 99 % of control | T/C [6]: 106 % of control | T/C [7]: 106 % of control

CN(Cc1ccccc1)N=NCc1ccccc1
T/C (dose: 12.5 mg/kg/injection, schedule: Q01DX005 (ip), vehicle: saline with Tween-80): 103 % of control | T/C (dose: 25.0 mg/kg/injection, schedule: Q01DX005 (ip), vehicle: saline with Tween-80): 115 % of control | T/C [8]: 154 % of control

COC(=O)c1ccccc1NC(CCN1CCN(CCC(=NC(C)(C)C)Nc2ccccc2C(=O)OC)CC1)=NC(C)(C)C
T/C [9]: 93 % of control | T/C [10]: 96 % of control | T/C [11]: 92 % of control

Oc1oc(-c2ccccc2)nc1/C=C1/C(Cl)=Nc2ccccc21
T/C (dose: 100.0 mg/kg/injection, schedule: Q01DX001 (ip), vehicle: saline with Tween-80): 99 % of control | T/C (dose: 200.0 mg/kg/injection, schedule: Q01DX001 (ip), vehicle: saline with Tween-80): 99 % of control | T/C (dose: 400.0 mg/kg/injection, schedule: Q01DX001 (ip), vehicle: saline with Tween-80): 100 % of control

Nc1nc(N)c2cc(CNc3ccc(C(=O)NC(CC(=O)O)C(=O)O)cc3)ccc2n1 (stereo not drawn)
T/C (dose: 0.13 mg/kg/injection, schedule: Q04DX003 (ip), vehicle: saline with Tween-80): 109 % of control | T/C (dose: 0.25 mg/kg/injection, schedule: Q04DX003 (ip), vehicle: saline with Tween-80): 113 % of control | T/C (dose: 0.5 mg/kg/injection, schedule: Q01DX009 (ip), vehicle: saline): 181 % of control | T/C (dose: 1.0 mg/kg/injection, schedule: Q01DX009 (ip), vehicle: saline): 200 % of control | T/C (dose: 1.0 mg/kg/injection, schedule: Q04DX003 (ip), vehicle: saline with Tween-80): 150 % of control | T/C (dose: 1.56 mg/kg/injection, schedule: Q01DX009 (ip), vehicle: saline): 222 % of control | T/C (dose: 3.13 mg/kg/injection, schedule: Q01DX009 (ip), vehicle: saline): 259 % of control | T/C [1]: 90 % of control

Cn1cc(O)c(=O)n(C)c1=O
T/C (dose: 100.0 mg/kg/injection, schedule: Q04DX003 (ip), vehicle: saline with Tween-80): 99 % of control | T/C (dose: 200.0 mg/kg/injection, schedule: Q04DX003 (ip), vehicle: saline with Tween-80): 105 % of control | T/C (dose: 400.0 mg/kg/injection, schedule: Q04DX003 (ip), vehicle: saline with Tween-80): 100 % of control

CC1C=C(COC(=O)Nc2ccccc2)ON1c1ccccc1 (stereo not drawn)
T/C (dose: 100.0 mg/kg/injection, schedule: Q01DX001 (ip), vehicle: Klucel (hydroxypropylcellulose) (HPC)): 108 % of control | T/C (dose: 200.0 mg/kg/injection, schedule: Q01DX001 (ip), vehicle: Klucel (hydroxypropylcellulose) (HPC)): 97 % of control | T/C (dose: 400.0 mg/kg/injection, schedule: Q01DX001 (ip), vehicle: Klucel (hydroxypropylcellulose) (HPC)): 100 % of control

COc1ccc(-n2nc3c(ccc4ccccc43)c2N)cc1
T/C [5]: 94 % of control | T/C [6]: 95 % of control | T/C [7]: 94 % of control

CC(C)NC(=O)OCCS(=O)c1c(Cl)c(Cl)nn1C (stereo not drawn)
T/C [5]: 117 % of control | T/C [6]: 109 % of control

O=C(c1ccccc1)c1ccc(NC(=O)C(F)(F)F)cc1
T/C [2]: 88 % of control | T/C [3]: 86 % of control | T/C [4]: 99 % of control

COc1cc(-c2ccc(NC(=O)Nc3nccs3)c(OC)c2)ccc1NC(=O)Nc1nccs1
T/C [2]: 95 % of control | T/C [3]: 98 % of control | T/C [4]: 96 % of control

OC1CCCC1NC1CCCCC1 (stereo not drawn)
T/C (dose: 15.0 mg/kg/injection, schedule: Q01DX005 (ip), vehicle: Klucel (hydroxypropylcellulose) (HPC)): 102 % of control | T/C (dose: 30.0 mg/kg/injection, schedule: Q01DX005 (ip), vehicle: Klucel (hydroxypropylcellulose) (HPC)): 102 % of control | T/C (dose: 60.0 mg/kg/injection, schedule: Q01DX005 (ip), vehicle: Klucel (hydroxypropylcellulose) (HPC)): 104 % of control

CC(C)=Cc1cc(-c2cc(C=C(C)C)[nH]n2)n[nH]1
T/C [5]: 97 % of control | T/C [6]: 100 % of control | T/C [7]: 102 % of control

CCCCCCC(=O)C(=O)c1ccc(O)cc1O
T/C [9]: 113 % of control | T/C [10]: 109 % of control | T/C [11]: 109 % of control

O=c1[nH]cc(F)c(=O)[nH]1.[Tl]
T/C (dose: 0.78 mg/kg/injection, schedule: Q01DX009 (ip), vehicle: Klucel (hydroxypropylcellulose) (HPC)): 99 % of control | T/C (dose: 1.56 mg/kg/injection, schedule: Q01DX009 (ip), vehicle: Klucel (hydroxypropylcellulose) (HPC)): 103 % of control | T/C (dose: 3.13 mg/kg/injection, schedule: Q01DX009 (ip), vehicle: Klucel (hydroxypropylcellulose) (HPC)): 115 % of control

CCCCN(CCCC)CC(O)c1ccc(OC)c2ccccc12 (stereo not drawn)
T/C [8]: 102 % of control | T/C [12]: 107 % of control | T/C [13]: 98 % of control

O=C(O)/C(=C/c1cccs1)c1ccc(F)cc1
T/C [5]: 110 % of control | T/C [6]: 102 % of control | T/C [7]: 104 % of control

NCP(=O)(CN)CN
T/C [9]: 99 % of control | T/C [10]: 100 % of control | T/C [11]: 100 % of control

NC(=O)CCN1CCCN(CCC(N)=O)CCN(CCC(N)=O)CCCN(CCC(N)=O)CC1
T/C [5]: 102 % of control | T/C [6]: 110 % of control | T/C [7]: 94 % of control

CC(C)(C)C1CCC(O)(Cc2ccccc2)CC1 (stereo not drawn)
T/C [8]: 101 % of control | T/C [12]: 91 % of control | T/C [13]: 99 % of control

O=S(=O)(F)c1nc(Cl)c2[nH]cnc2n1
T/C (dose: 12.5 mg/kg/injection, schedule: Q01DX005 (ip), vehicle: Klucel (hydroxypropylcellulose) (HPC)): 106 % of control | T/C (dose: 25.0 mg/kg/injection, schedule: Q01DX005 (ip), vehicle: Klucel (hydroxypropylcellulose) (HPC)): 114 % of control | T/C [14]: 110 % of control and 114 % of control

CN1CC2(C)CCCC(C)(C1)C2O (stereo not drawn)
T/C [8]: 106 % of control | T/C [12]: 98 % of control

Cc1ccc(S(=O)(=O)CC(=O)CC(=O)C(C#N)c2cccc(Cl)c2)cc1 (stereo not drawn)
T/C [8]: 100 % of control | T/C [12]: 99 % of control | T/C [13]: 107 % of control

C/C=C1/CN2CCC34c5ccccc5N5C(=O)C(C6CC78c9ccccc9N9C(=O)C=CC(C%10CC7N6C/C%10=C/C)C98)=CC(C1CC23)C54 (stereo not drawn)
T/C (dose: 10.0 mg/kg/injection, schedule: Q01DX009 (ip), vehicle: saline with Tween-80): 99 % of control | T/C (dose: 20.0 mg/kg/injection, schedule: Q01DX009 (ip), vehicle: saline with Tween-80): 104 % of control | T/C (dose: 40.0 mg/kg/injection, schedule: Q01DX009 (ip), vehicle: saline with Tween-80): 104 % of control | T/C (dose: 80.0 mg/kg/injection, schedule: Q01DX009 (ip), vehicle: saline with Tween-80): 88 % of control

Nc1ccc(C(=O)Nc2ccc(C(=O)Nc3ccc4cc(S(=O)(=O)O)cc(S(=O)(=O)O)c4c3)cc2)cc1
T/C (dose: 50.0 mg/kg/injection, schedule: Q01DX005 (ip), vehicle: saline): 103 % of control | T/C (dose: 100.0 mg/kg/injection, schedule: Q01DX005 (ip), vehicle: saline): 103 % of control | T/C (dose: 200.0 mg/kg/injection, schedule: Q01DX005 (ip), vehicle: saline): 103 % of control

c1nc(N2CCOCC2)c2[nH]cnc2n1
T/C [14]: 99 % of control and 91 % of control | T/C (dose: 100.0 mg/kg/injection, schedule: Q01DX005 (ip), vehicle: Klucel (hydroxypropylcellulose) (HPC)): 88 % of control | T/C (dose: 200.0 mg/kg/injection, schedule: Q01DX005 (ip), vehicle: Klucel (hydroxypropylcellulose) (HPC)): 91 % of control

O=C1COC(c2ccccc2O)=NN1CCCl
T/C [2]: 103 % of control | T/C [3]: 103 % of control | T/C [4]: 110 % of control

COc1cc2c(c(OC)c1OC)C1=NNC(=O)C1(C)CC2 (stereo not drawn)
T/C (dose: 100.0 mg/kg/injection, schedule: Q04DX003 (ip), vehicle: Klucel (hydroxypropylcellulose) (HPC)): 91 % of control | T/C (dose: 200.0 mg/kg/injection, schedule: Q04DX003 (ip), vehicle: Klucel (hydroxypropylcellulose) (HPC)): 88 % of control | T/C (dose: 400.0 mg/kg/injection, schedule: Q04DX003 (ip), vehicle: Klucel (hydroxypropylcellulose) (HPC)): 92 % of control
